We go through 47 molecules from the OPERA property sets (Mansouri et al. 2018).

Details in the first series: not given
In general, melting point refers to the temperature of the solid-liquid transition. `CON(C)C(=O)Nc1ccc(Br)cc1` registered a log10 Koc (L/kg) of 2.1, a log10 vapour pressure (mmHg) of -5.52 and a melting point of 95 °C.
As a reminder, the boiling point is the temperature of boiling at a given pressure. Turning to `CCCN(CCC)c1ccccc1`, the boiling point came to 242 °C.
`N=C(N)NC(=N)NCCc1ccccc1` returned a melting point of 176 °C.
Still for that read-out and setting: the result for `CN1CCN(C2=Nc3ccccc3Sc3ccc(Cl)cc32)CC1` reads 119 °C.
For the molecule `CC(CC=O)CCCC(C)(C)O` (centres undefined), the boiling point was found to be 241 °C.
As for `Clc1cc(Cl)c(Cl)c(-c2cc(Cl)c(Cl)c(Cl)c2Cl)c1`, the log10 Henry constant (atm·m³/mol) was -5.89.
On to `ClCC(Cl)=C(Cl)Cl`, for which the boiling point is 167 °C and the log10 vapour pressure (mmHg) was found to be 0.428.
`Cc1csc(C)c1` yielded a boiling point of 141 °C.
On to `CCCCn1c(=O)c2c(ncn2C)n(C)c1=O`, for which the melting point was found to be 108 °C.
In turn, `COCCC(=O)OC` returned a boiling point of 143 °C.
Take `OCC(CO)(CO)CBr`: the melting point was 76 °C.
For `CCCCCCCCCCCCCCCCCCS`, the boiling point is 360 °C, the log10 vapour pressure (mmHg) was -6.4, the melting point was 30 °C and the ready biodegradability entry is listed as “not readily biodegradable”.
For the molecule `C=CC(CC)CCC` (centres undefined), the boiling point was 110 °C.
For `Nc1ccc([N+](=O)[O-])cc1Cl`, the log10 Henry constant (atm·m³/mol) was -8.02, the melting point came to 108 °C and the ready biodegradability entry is given as “not readily biodegradable”.
With `N#Cc1ccc([N+](=O)[O-])cc1`, the melting point amounted to 148 °C.
For `CCOP(=S)(OCC)Oc1ccc2c(C)c(Cl)c(=O)oc2c1`, the log10 vapour pressure (mmHg) was -7.01 and the melting point was determined as 93 °C.
In the case of `CCCC(=O)[O-].[Na+]`, the melting point stood at 251 °C.
Consider `CC1(C)CCC(C)(C)O1`, for which the boiling point came out at 112 °C.
On the same count and under the same terms, under `CCCC(C)(CC)CC` stands 141 °C.
`C1CCSCC1` registered a boiling point of 142 °C, a log10 vapour pressure (mmHg) of 0.895 and a melting point of 19 °C.
Consider `CCCCCCCCCCCCCCCCCCCCc1ccccc1`, for which the boiling point came out at 429 °C and the melting point worked out at 44 °C.
On to `Nc1ncnc2c1ncn2[C@H]1CC[C@@H](CO)O1`, for which the melting point is 185 °C.
Same read-out and setting: the result for `S=C(Nc1ccccc1)c1ccccc1` reads 102 °C.
As for `COC(=O)c1cccc(C(=O)OC)c1`, the boiling point amounted to 282 °C, the melting point was found to be 67.5 °C and the ready biodegradability entry was “readily biodegradable”.
Turning to `O=C1CCCCCCC1`, the boiling point came to 196 °C, the log10 vapour pressure (mmHg) was -0.389 and the melting point was 29 °C.
Take `OCC(O)CI` (centres undefined): the melting point was found to be 48.5 °C.
The molecule `Clc1ccc(Oc2ccccc2)cc1` registered a boiling point of 284 °C and a log10 vapour pressure (mmHg) of -2.57.
`CCC(C)C`: the log10 vapour pressure (mmHg) turned out to be 2.84 and the melting point is -160 °C.
Take `CCNc1nc(Cl)nc(NC(C)C)n1`: the log10 Koc (L/kg) was found to be 2.24, the log10 vapour pressure (mmHg) was -6.54, the melting point is 173 °C and the ready biodegradability entry is listed as “not readily biodegradable”.
For `FC(F)=C(F)C(F)(F)C(F)(F)C(F)(F)C(F)(F)F`, the boiling point turned out to be 57 °C.
`c1ccc2nc3ccccc3nc2c1` gave a log10 Koc (L/kg) of 3.37 and a melting point of 176 °C.
In turn, `Cc1ccc(C)[nH]1` had a boiling point of 171 °C, a log10 vapour pressure (mmHg) of -0.0942 and a melting point of 7.7 °C.
With `O=C(O)Cc1ccccc1Oc1ccc(Cl)cc1Cl`, the melting point was 112 °C.
The same measure, in the same setting: under `CC(Br)CCCBr` (centres undefined) stands -34.4 °C.
As to `CCOc1ccc(C=O)cc1`, the boiling point was 249 °C and the melting point came to 13.5 °C.
In turn, `COCCCNc1nc(NC(C)C)nc(SC)n1` had a log10 vapour pressure (mmHg) of -6.55.
In the case of `C=C(C)C#N`, the boiling point worked out at 90.3 °C, the log10 vapour pressure (mmHg) came out at 1.85, the melting point is -35.8 °C and the ready biodegradability result is given as “readily biodegradable”.
As for `CCCCOCCCC`, the boiling point is 141 °C, the log10 Henry constant (atm·m³/mol) is -2.22, the log10 Koa amounted to 3.89 and the log10 vapour pressure (mmHg) was found to be 0.779. Besides, the ready biodegradability result is reported as “not readily biodegradable”.
The molecule `N[C@H](CCC(=O)O)C(=O)O` showed a melting point of 201 °C.
Turning to `FC(F)(Br)Br`, the boiling point was found to be 25 °C, the log10 vapour pressure (mmHg) amounted to 2.91 and the melting point was -110 °C.
`NS(=O)(=O)c1ccc(SCCCCCO)cc1` yielded a melting point of 103 °C.
In turn, `COc1cccc(C(C)=O)c1` gave a boiling point of 240 °C.
Molecule `C[Se][Se]C` displayed a boiling point of 156 °C and a log10 vapour pressure (mmHg) of 0.455.
With `CC1(C)CC(O)CC(C)(CN)C1` (centres undefined), the boiling point was 265 °C and the melting point amounted to 45.5 °C.

Still in this series, the particulars now being: fish.
Molecule `Clc1cc(Cl)c(-c2c(Cl)c(Cl)cc(Cl)c2Cl)c(Cl)c1Cl` had a log10 biotransformation half-life (days) of 2.46.
With `N#CNC(=N)N`, the log10 BCF turned out to be 0.49.
`O=[N+]([O-])c1cc(S(=O)(=O)Nc2ccccc2)ccc1Nc1ccccc1` gave a log10 BCF of 1.61 and a log10 biotransformation half-life (days) of -0.66.
`Clc1cc(Cl)c(Cl)c(-c2cc(Cl)c(Cl)c(Cl)c2Cl)c1` displayed a log10 biotransformation half-life (days) of 2.51.
Take `CCNc1nc(Cl)nc(NC(C)C)n1`: the log10 BCF turned out to be 0.9 and the log10 biotransformation half-life (days) is -1.05.
In the same order, the values of `CCCCOCCCC` are 1.86 and -0.25.
